Measurements published in patent publication US4742053A, “3-Isoquinoliniomethyl cephalosporin derivatives” (Banyu Pharmaceutical Co., Ltd., priority 1984, dated 1988).
Values after ≈ are worked out from the molar mass of the structure shown. Like-named read-outs stand apart in the source and are kept apart here.

Key:
[1] = tested on: Gram-positive bacteria and Gram-negative bacteria; settings: background, Antimicrobial Agents and Chemotherapy; cited from earlier work
[2] = tested on: P. cepacia 23; experiment: MIC by agar plate dilution method; assay type: cell-based
Procedure: (§1) The minimum inhibitory concentrations (MIC: μg/ml) of the compounds of the present invention against various microorganisms were measured by an agar plate dilution method (inoculum size: 10^6 CFU/ml) by using Sensitivity Disk Agar (Nissui) in comparison with Cefotaxime and Ceftazidime as comparative compounds.
(§2) Minimum Inhibitory Concentration (μg/ml; 10^6 CFU/ml)

[3] = tested on: P. vulgaris OB1043; experiment: MIC by agar plate dilution method; assay type: cell-based; settings: Proteus vulgaris
Procedure: as §1, §2

[4] = tested on: P. mirabilis JY10; experiment: MIC by agar plate dilution method; assay type: cell-based; settings: Proteus mirabilis
Procedure: as §1, §2

[5] = tested on: C. freundii No. 7; experiment: MIC by agar plate dilution method; assay type: cell-based; settings: Citrobacter freundii
Procedure: as §1, §2

[6] = tested on: S. marcescens No. 16-2; experiment: MIC by agar plate dilution method; assay type: cell-based; settings: Serratia marcescens
Procedure: as §1, §2

[7] = tested on: P. vulgaris No. 33; experiment: MIC by agar plate dilution method; assay type: cell-based; settings: Proteus vulgaris
Procedure: as §1, §2

[8] = tested on: E. coli CSH2; experiment: MIC by agar plate dilution method; assay type: cell-based; settings: Escherichia coli, 10^6 CFU/ml, read-out: Minimum Inhibitory Concentration
Procedure: as §1, §2

[9] = tested on: E. cloaceae Nek 39; experiment: MIC by agar plate dilution method; assay type: cell-based; settings: read-out: Minimum Inhibitory Concentration
Procedure: as §1, §2

[10] = tested on: E. coli C/Rms149; experiment: MIC by agar plate dilution method; assay type: cell-based; settings: Escherichia coli, read-out: Minimum Inhibitory Concentration, E. coli C/Rms149; 10^6 CFU/ml
Procedure: as §1, §2

[11] = tested on: E. coli ML1410/Rte16; experiment: MIC by agar plate dilution method; assay type: cell-based; settings: Escherichia coli, ML1410/RTE16, read-out: Minimum Inhibitory Concentration, E. coli ML1410/Rte16; 10^6 CFU/ml
Procedure: as §1, §2

[12] = tested on: P. aeruginosa AK109; experiment: MIC by agar plate dilution method; assay type: cell-based; settings: Pseudomonas aeruginosa
Procedure: as §1, §2

[13] = tested on: A. calcoaceticus No. 14; experiment: MIC by agar plate dilution method; assay type: cell-based; settings: Acinetobacter calcoaceticus
Procedure: as §1, §2

[14] = tested on: S. aureus JS-1; experiment: MIC by agar plate dilution method; assay type: cell-based; settings: Staphylococcus aureus
Procedure: as §1, §2

[15] = tested on: E. coli W3630/Rms213; experiment: MIC by agar plate dilution method; assay type: cell-based; settings: Escherichia coli, W3630/RMS213, read-out: Minimum Inhibitory Concentration, E. coli W3630/Rms213; 10^6 CFU/ml
Procedure: as §1, §2

[16] = tested on: S. aureus NIHJJC-1; experiment: MIC by agar plate dilution method; assay type: cell-based; settings: Staphylococcus aureus
Procedure: as §1, §2

[17] = tested on: E. coli NIHJJC-2; experiment: MIC by agar plate dilution method; assay type: cell-based; settings: Escherichia coli
Procedure: as §1, §2

[18] = tested on: E. coli W3630/Rms212; experiment: MIC by agar plate dilution method; assay type: cell-based; settings: Escherichia coli, W3630/RMS212, read-out: Minimum Inhibitory Concentration, E. coli W3630/Rms212; 10^6 CFU/ml
Procedure: as §1, §2

[19] = tested on: K. pneumoniae No. 42; experiment: MIC by agar plate dilution method; assay type: cell-based; settings: Klebsiella pneumoniae
Procedure: as §1, §2

[20] = tested on: E. coli CSH; experiment: MIC by agar plate dilution method; assay type: cell-based; settings: Escherichia coli, 10^6 CFU/ml, read-out: Minimum Inhibitory Concentration
Procedure: as §1, §2

[21] = tested on: P. maltophilia IID 1275; experiment: MIC by agar plate dilution method; assay type: cell-based; settings: Stenotrophomonas maltophilia
Procedure: as §1, §2

[22] = tested on: P. aeruginosa AKR17; experiment: MIC by agar plate dilution method; assay type: cell-based; settings: Pseudomonas aeruginosa
Procedure: as §1, §2

[23] = tested on: E. coli NIHJ; experiment: bioautography (TLC); assay type: cell-based; settings: TLC Merck silica gel F254, E. coli NIHJ
Procedure: 2.5 mg of the compound obtained in Example 4 (C) was suspended in 0.5 ml of methanol, and 35 μl of concentrated aqueous ammonia was added thereto. The mixture was left to stand at room temperature for 1 hour. […] The fraction of this peak was separated and freeze-dried to obtain 1 mg of the above identified compound.

[24] = Burkholderia cepacia, P. cepacia 23, 10^6 CFU/ml, read-out: Minimum Inhibitory Concentration
[25] = OB1043, P. vulgaris OB1043, 10^6 CFU/ml, read-out: Minimum Inhibitory Concentration
[26] = P. mirabilis JY10, 10^6 CFU/ml, read-out: Minimum Inhibitory Concentration
[27] = C. freundii No. 7, 10^6 CFU/ml, read-out: Minimum Inhibitory Concentration
[28] = NO.162, S. marcescens No. 16-2, 10^6 CFU/ml, read-out: Minimum Inhibitory Concentration
[29] = P. vulgaris No. 33, 10^6 CFU/ml, read-out: Minimum Inhibitory Concentration
[30] = E. cloaceae Nek 39, 10^6 CFU/ml
[31] = AK109, P. aeruginosa AK109, 10^6 CFU/ml, read-out: Minimum Inhibitory Concentration
[32] = NO.14, A. calcoaceticus No. 14, 10^6 CFU/ml, read-out: Minimum Inhibitory Concentration
[33] = JS1, S. aureus JS-1, 10^6 CFU/ml, read-out: Minimum Inhibitory Concentration
[34] = NIHJJC1, S. aureus NIHJJC-1, 10^6 CFU/ml, read-out: Minimum Inhibitory Concentration
[35] = NIHJJC2, E. coli NIHJJC-2, 10^6 CFU/ml, read-out: Minimum Inhibitory Concentration
[36] = K. pneumoniae No. 42, 10^6 CFU/ml, read-out: Minimum Inhibitory Concentration
[37] = AKR17, P. aeruginosa AKR17, 10^6 CFU/ml, read-out: Minimum Inhibitory Concentration

SMILES | antibacterial activities [1] | MIC [8] | MIC [10] | MIC [11] | MIC [15] | MIC [18] | MIC [20] | MIC [2, 24] | MIC [3, 25] | MIC [4, 26] | MIC [5, 27] | MIC [6, 28] | MIC [7, 29] | MIC [9, 30] | MIC [12, 31] | MIC [13, 32] | MIC [14, 33] | MIC [16, 34] | MIC [17, 35] | MIC [19, 36] | also measured
CC(C)(O/N=C(\C(=O)N[C@@H]1C(=O)N2C(C(=O)[O-])=C(C[n+]3ccccc3)CS[C@H]12)c1csc(N)n1)C(=O)O [Ceftazidime, reference compound] | the most excellent cephalosporin derivative against Gram-positive bacteria including Pseudomonas aeruginosa and Acinetobacter | ≤ 0.1 µg/mL | 0.2 µg/mL (≈ 0.366 µM) | 0.2 µg/mL (≈ 0.366 µM) | 0.2 µg/mL (≈ 0.366 µM) | 0.2 µg/mL (≈ 0.366 µM) | ≤ 0.1 µg/mL | – | – | – | – | – | – | – | – | – | – | – | – | – | MIC ([2]; Burkholderia cepacia, 23, read-out: Minimum Inhibitory Concentration): 0.39 µg/mL (≈ 0.714 µM); MIC ([3]; OB1043, read-out: Minimum Inhibitory Concentration): ≤ 0.1 µg/mL; MIC ([4]; JY10, read-out: Minimum Inhibitory Concentration): ≤ 0.1 µg/mL; MIC ([5]; NO.7, read-out: Minimum Inhibitory Concentration): 1.56 µg/mL (≈ 2.85 µM); MIC ([6]; NO.162, read-out: Minimum Inhibitory Concentration): 1.56 µg/mL (≈ 2.85 µM); MIC ([7]; NO.33, read-out: Minimum Inhibitory Concentration): ≤ 0.1 µg/mL; MIC [9]: 0.78 µg/mL (≈ 1.43 µM); MIC ([12]; AK109, read-out: Minimum Inhibitory Concentration): 1.56 µg/mL (≈ 2.85 µM); MIC ([13]; NO.14, read-out: Minimum Inhibitory Concentration): 6.25 µg/mL (≈ 11.4 µM); MIC ([14]; JS1, read-out: Minimum Inhibitory Concentration): 50 µg/mL (≈ 91.5 µM); MIC ([16]; NIHJJC1, read-out: Minimum Inhibitory Concentration): 3.12 µg/mL (≈ 5.71 µM); MIC ([17]; NIHJJC2, read-out: Minimum Inhibitory Concentration): ≤ 0.1 µg/mL; MIC ([19]; NO.42, read-out: Minimum Inhibitory Concentration): 0.39 µg/mL (≈ 0.714 µM); MIC ([21]; IID1275, read-out: Minimum Inhibitory Concentration): > 25 µg/mL; MIC ([22]; AKR17, read-out: Minimum Inhibitory Concentration): > 100 µg/mL
CO/N=C(\C(=O)NC1C(=O)N2C(C(=O)[O-])=C(C[N+]3(C)CCc4cc(OC(C)=O)c(OC(C)=O)cc4C3)CSC12)c1csc(N)n1 (centres unmarked) [Ex. 4-C, 7-[(Z)-2-(2-aminothiazol-4-yl)-2-methoxyiminoacetamido]-3-(6,7-diacetoxy-2-methyl-1,2,3,4-tetrahydro-2-isoquinolinium)methyl-3-cephem-4-carboxylate] | – | 0.1 µg/mL (≈ 0.152 µM) | ≤ 0.1 µg/mL | 0.1 µg/mL (≈ 0.152 µM) | 1.56 µg/mL (≈ 2.37 µM) | ≤ 0.05 µg/mL | 1.56 µg/mL (≈ 2.37 µM) | 0.78 µg/mL (≈ 1.18 µM) | 1.56 µg/mL (≈ 2.37 µM) | 0.78 µg/mL (≈ 1.18 µM) | 6.25 µg/mL (≈ 9.49 µM) | 6.25 µg/mL (≈ 9.49 µM) | 0.2 µg/mL (≈ 0.304 µM) | ≤ 0.05 µg/mL | 0.1 µg/mL (≈ 0.152 µM) | 0.39 µg/mL (≈ 0.592 µM) | 25 µg/mL (≈ 38 µM) | 3.12 µg/mL (≈ 4.74 µM) | < 0.05 µg/mL | 0.2 µg/mL (≈ 0.304 µM) | MIC [22, 37]: 1.56 µg/mL (≈ 2.37 µM); antibacterial spot in bioautography [23]: the antibacterial spot of the starting material was at Rf=0.4
CO/N=C(\C(=O)N[C@@H]1C(=O)N2C(C(=O)O)=C(COC(C)=O)CS[C@H]12)c1csc(N)n1 [Cefotaxime, reference compound] | relatively poor antibacterial activities against Gram-positive bacteria, and excellent activities against Gram-negative bacteria, particularly against Enterobacteriacae | ≤ 0.05 µg/mL | ≤ 0.05 µg/mL | ≤ 0.05 µg/mL | 0.2 µg/mL (≈ 0.439 µM) | ≤ 0.05 µg/mL | 0.1 µg/mL (≈ 0.22 µM) | 6.25 µg/mL (≈ 13.7 µM) | 0.39 µg/mL (≈ 0.856 µM) | ≤ 0.05 µg/mL | 0.39 µg/mL (≈ 0.856 µM) | 6.25 µg/mL (≈ 13.7 µM) | ≤ 0.05 µg/mL | 0.78 µg/mL (≈ 1.71 µM) | 6.25 µg/mL (≈ 13.7 µM) | 25 µg/mL (≈ 54.9 µM) | 6.25 µg/mL (≈ 13.7 µM) | 0.78 µg/mL (≈ 1.71 µM) | ≤ 0.05 µg/mL | 0.1 µg/mL (≈ 0.22 µM) | MIC ([21]; IID1275, P. maltophilia IID 1275, 10^6 CFU/ml, read-out: Minimum Inhibitory Concentration): > 25 µg/mL; MIC [22, 37]: > 25 µg/mL
